This data set can be described thus: molar heat capacity at constant pressure. The following applies: 101.33 kPa, Crystal.

Numbers after ± are expanded uncertainties.

The results in this text go back to the NIST ThermoML archive (doi:10.1021/je060257y).

`Cn1c2c(c(=O)n(C)c1=O)CCCC2` [1,3-dimethyl-5,6,7,8-tetrahydroquinazoline-2,4(1H,3H)-dione]: the “molar heat capacity at constant pressure” value reads like this: (298.15 K) 282.9 ± 8.8 J/K/mol; (303.15 K) 291.2 ± 9 J/K/mol; (308.15 K) 296.2 ± 9.2 J/K/mol; (313.15 K) 305.8 ± 9.5 J/K/mol; (318.15 K) 310.9 ± 9.6 J/K/mol; (323.15 K) 319.8 ± 9.9 J/K/mol.
As to `O=c1[nH]cc(Br)c(=O)[nH]1` [5-bromouracil], the “molar heat capacity at constant pressure” value stood at 144.7 ± 4.5 J/K/mol (298.15 K); 147.9 ± 4.6 J/K/mol (303.15 K); 148.5 ± 4.6 J/K/mol (308.15 K); 151 ± 4.7 J/K/mol (313.15 K); 153.9 ± 4.8 J/K/mol (318.15 K); 157.1 ± 4.9 J/K/mol (323.15 K). The “molar heat capacity at constant pressure” value (328.15 K) is reported as 157.9 ± 4.9 J/K/mol, the “molar heat capacity at constant pressure” value (333.15 K) was 162 ± 5 J/K/mol, the “molar heat capacity at constant pressure” value (338.15 K) is recorded as 164.3 ± 5.1 J/K/mol and the “molar heat capacity at constant pressure” value (343.15 K) amounted to 164.8 ± 5.1 J/K/mol.
Regarding `CCCc1cc(=O)n(C)c(=O)n1C` [2,4(1H,3H)-pyrimidinedione, 1,3-dimethyl-6-propyl-], the “molar heat capacity at constant pressure” value runs as follows: (298.15 K) 287.2 ± 10 J/K/mol; (303.15 K) 288.8 ± 10 J/K/mol; (308.15 K) 290.5 ± 10 J/K/mol; (313.15 K) 292.2 ± 10 J/K/mol; (318.15 K) 293.9 ± 10 J/K/mol; (323.15 K) 303.9 ± 10 J/K/mol.
Take `Cc1nc(O)nc(O)c1C` [2,4-dihydroxy-5,6-dimethylpyrimidine]: the “molar heat capacity at constant pressure” value (298.15 K) was 191.1 ± 5.9 J/K/mol; the “molar heat capacity at constant pressure” value (303.15 K) is 198.3 ± 6.1 J/K/mol; the “molar heat capacity at constant pressure” value (308.15 K) came out at 203.2 ± 6.3 J/K/mol; the “molar heat capacity at constant pressure” value (313.15 K) was determined as 208 ± 6.4 J/K/mol; the “molar heat capacity at constant pressure” value (318.15 K) stood at 212 ± 6.6 J/K/mol; the “molar heat capacity at constant pressure” value (323.15 K) is listed as 215.6 ± 6.7 J/K/mol. Moreover, the “molar heat capacity at constant pressure” value runs as follows: (328.15 K) 219.1 ± 6.8 J/K/mol; (333.15 K) 223.3 ± 6.9 J/K/mol; (338.15 K) 229.3 ± 7.1 J/K/mol; (343.15 K) 234.1 ± 7.3 J/K/mol.
With `Cn1c2c(c(=O)n(C)c1=O)CCC2` [1,3-dimethyl-5,6-trimethyleneuracil], the “molar heat capacity at constant pressure” value reads like this: (298.15 K) 252.9 ± 7.8 J/K/mol; (303.15 K) 258.1 ± 8 J/K/mol; (308.15 K) 261.8 ± 8.1 J/K/mol.
Regarding `CCCc1cn(C)c(=O)n(C)c1=O` [2,4(1H,3H)-pyrimidinedione, 1,3-dimethyl-5-propyl-], the “molar heat capacity at constant pressure” value runs as follows: (298.15 K) 302.7 ± 9.4 J/K/mol; (303.15 K) 302.7 ± 9.4 J/K/mol; (308.15 K) 302.8 ± 9.4 J/K/mol; (313.15 K) 303 ± 9.4 J/K/mol; (318.15 K) 306.2 ± 9.5 J/K/mol; (323.15 K) 308.4 ± 9.6 J/K/mol.
Regarding `CCCCc1cc(=O)n(C)c(=O)n1C` [2,4(1H,3H)-pyrimidinedione, 6-butyl-1,3-dimethyl-], the “molar heat capacity at constant pressure” value reads like this: (298.15 K) 296.4 ± 9.2 J/K/mol; (303.15 K) 297.9 ± 9.2 J/K/mol; (308.15 K) 299.4 ± 9.3 J/K/mol; (313.15 K) 300.9 ± 9.3 J/K/mol; (318.15 K) 302.1 ± 9.4 J/K/mol; (323.15 K) 305.3 ± 9.5 J/K/mol.
For the molecule `Cc1c[nH]c(=O)[nH]c1=O` [thymine], the “molar heat capacity at constant pressure” value runs as follows: (298.15 K) 163 ± 5.3 J/K/mol; (303.15 K) 168.2 ± 5.4 J/K/mol; (308.15 K) 173.7 ± 5.6 J/K/mol; (313.15 K) 178.7 ± 5.7 J/K/mol; (318.15 K) 184.3 ± 5.8 J/K/mol; (323.15 K) 189.9 ± 6 J/K/mol. In addition, the “molar heat capacity at constant pressure” value reads like this: (328.15 K) 195.2 ± 6.1 J/K/mol; (333.15 K) 200 ± 6.2 J/K/mol; (338.15 K) 203.5 ± 6.3 J/K/mol; (343.15 K) 205.9 ± 6.4 J/K/mol.
As for `CCCCc1cn(C)c(=O)n(C)c1=O` [2,4(1H,3H)-pyrimidinedione, 5-butyl-1,3-dimethyl-], the “molar heat capacity at constant pressure” value is, setting by setting: (298.15 K) 358.1 ± 14 J/K/mol; (303.15 K) 544.2 ± 22 J/K/mol.
Take `O=c1cc(Cl)[nH]c(=O)[nH]1` [6-chlorouracil]: the “molar heat capacity at constant pressure” value runs as follows: (298.15 K) 139.4 ± 4.3 J/K/mol; (303.15 K) 141 ± 4.4 J/K/mol; (308.15 K) 141.2 ± 4.4 J/K/mol; (313.15 K) 140.8 ± 4.4 J/K/mol; (318.15 K) 141.3 ± 4.4 J/K/mol; (323.15 K) 144.7 ± 4.5 J/K/mol. Moreover, the “molar heat capacity at constant pressure” value by setting is: (328.15 K) 144.9 ± 4.5 J/K/mol; (333.15 K) 145.1 ± 4.5 J/K/mol; (338.15 K) 146 ± 4.5 J/K/mol; (343.15 K) 147.9 ± 4.6 J/K/mol.
Regarding `Cc1cc(=O)[nH]c(=O)n1C` [1,6-dimethyluracil], the “molar heat capacity at constant pressure” value by setting is: (298.15 K) 188.1 ± 7 J/K/mol; (303.15 K) 194.3 ± 7.2 J/K/mol; (308.15 K) 197.9 ± 7.2 J/K/mol; (313.15 K) 202.6 ± 7.3 J/K/mol; (318.15 K) 206.8 ± 7.4 J/K/mol; (323.15 K) 211 ± 7.5 J/K/mol. Besides, the “molar heat capacity at constant pressure” value amounted to 217.9 ± 7.7 J/K/mol (328.15 K), 225.1 ± 7.9 J/K/mol (333.15 K), 233.1 ± 8 J/K/mol (338.15 K) and 239.8 ± 8.2 J/K/mol (343.15 K).
As to `Cc1cc(O)nc(O)n1` [2,4-dihydroxy-6-methylpyrimidine], the “molar heat capacity at constant pressure” value reads like this: (298.15 K) 162.5 ± 5 J/K/mol; (303.15 K) 167.2 ± 5.2 J/K/mol; (308.15 K) 170.2 ± 5.3 J/K/mol; (313.15 K) 172.2 ± 5.3 J/K/mol; (318.15 K) 176.9 ± 5.5 J/K/mol; (323.15 K) 181.4 ± 5.6 J/K/mol. In addition, the “molar heat capacity at constant pressure” value came out at 183 ± 5.7 J/K/mol (328.15 K), 187.3 ± 5.8 J/K/mol (333.15 K), 190.4 ± 5.9 J/K/mol (338.15 K) and 193 ± 6 J/K/mol (343.15 K).
Turning to `CCc1cn(C)c(=O)n(C)c1=O` [2,4(1H,3H)-pyrimidinedione, 5-ethyl-1,3-dimethyl-], the “molar heat capacity at constant pressure” value amounted to 241.1 ± 8.5 J/K/mol (298.15 K); 250.1 ± 8.7 J/K/mol (303.15 K); 256.5 ± 8.8 J/K/mol (308.15 K); 261 ± 8.9 J/K/mol (313.15 K); 264.3 ± 9 J/K/mol (318.15 K); 267.4 ± 9.1 J/K/mol (323.15 K). Also, the “molar heat capacity at constant pressure” value came to 270.7 ± 9.1 J/K/mol (328.15 K), 275.2 ± 9.3 J/K/mol (333.15 K), 281.7 ± 9.4 J/K/mol (338.15 K) and 291.1 ± 9.6 J/K/mol (343.15 K).
Take `CCc1cc(=O)n(C)c(=O)n1C` [2,4(1H,3H)-pyrimidinedione, 6-ethyl-1,3-dimethyl-]: the “molar heat capacity at constant pressure” value stood at 241.8 ± 9.6 J/K/mol (298.15 K); 243.4 ± 9.7 J/K/mol (303.15 K); 245.3 ± 9.7 J/K/mol (308.15 K); 246.3 ± 9.7 J/K/mol (313.15 K); 248.3 ± 9.8 J/K/mol (318.15 K); 259.6 ± 10 J/K/mol (323.15 K).
As for `O=c1cc[nH]c(=O)[nH]1` [2,4(1H,3H)-pyrimidinedione], the “molar heat capacity at constant pressure” value by setting is: (298.15 K) 131.8 ± 4.7 J/K/mol; (303.15 K) 135.5 ± 4.7 J/K/mol; (308.15 K) 140.9 ± 4.9 J/K/mol; (313.15 K) 143 ± 4.9 J/K/mol; (318.15 K) 146.1 ± 5 J/K/mol; (323.15 K) 149 ± 5.1 J/K/mol. Moreover, the “molar heat capacity at constant pressure” value reads like this: (328.15 K) 151.8 ± 5.1 J/K/mol; (333.15 K) 154.3 ± 5.2 J/K/mol; (338.15 K) 156.8 ± 5.2 J/K/mol; (343.15 K) 157.4 ± 5.3 J/K/mol.
For the molecule `Cc1c(C)n(C)c(=O)n(C)c1=O` [2,4(1H,3H)-pyrimidinedione, 1,3,5,6-tetramethyl-], the “molar heat capacity at constant pressure” value runs as follows: (298.15 K) 244.5 ± 7.9 J/K/mol; (303.15 K) 248.8 ± 8 J/K/mol; (308.15 K) 254 ± 8.1 J/K/mol; (313.15 K) 256.5 ± 8.2 J/K/mol; (318.15 K) 260.9 ± 8.3 J/K/mol; (323.15 K) 266.7 ± 8.4 J/K/mol. Besides, the “molar heat capacity at constant pressure” value stood at 271.2 ± 8.6 J/K/mol (328.15 K), 276.6 ± 8.7 J/K/mol (333.15 K), 282.3 ± 8.8 J/K/mol (338.15 K) and 291.5 ± 9.1 J/K/mol (343.15 K).
